Test system: NaIO3 induced dry AMD rat model
Assay: NaIO3 induced dry AMD rat model, c-wave of ERG
Assay type: in vivo
Conditions: 1% eye drops 3 times a day, 35 mg/kg NaIO3, BN rats
Description: A total of thirty 8-week-old male Brown-Norway (BN) rats were randomly divided into 3 groups, 10 rats in normal group, 10 rats in NaIO3 group and 10 rats in (II)+NaIO3 group. Control group was instilled with solvent (2-hydroxypropyl-β-cyclodextrin, Sigma-Aldrich) alone without NaIO3 injection. NaIO3 group was instilled with solvent plus 35 mg/kg NaIO3 injection through hypoglossal vein; whereas (II)+NaIO3 group was instilled with 1% (II) eye drops plus 35 mg/kg NaIO3 injection. Both eyes of all rats were instilled with 1 drop for 3 times a day for 1 week before and 4 weeks after NaIO3 injection. At the end of 2 and 4 weeks, RPE function was measured with c-wave of ERG.
BN rats were dark adapted for 2 hours, and then anesthetized with ketamine 35 mg/kg plus xylazine 5 mg/kg i.m, Half of the initial dose was given each 1 hour thereafter. Pupils of all rats were dilated with one drop each of 1% atropine, and 2.5% phenylephrine. Before recording, one drop of 0.5% tetracaine was given for surface anesthesia. All rats were kept warm during ERG measurement. DC-ERG recording methods developed by Peachey were followed. […] Data were analyzed by iWORX LabScribe Data Recording Software (iWorxOCB Sciences, Dover, N.H.). […]

- c-wave of ERG in NaIO3-treated rats: markedly reverse
- reversal of NaIO3 induced dry AMD model (c-wave of ERG): 4 times
SMILES: CC(C)=CCC/C(C)=C/Cc1c([C@@H]2CC(=O)c3c(cc(O)c(CC=C(C)C)c3O)O2)ccc(O)c1O [Formula (II)]

From patent publication US9370503B1, “Compounds for treating ocular diseases” (priority 2015, dated 2016)
